These results are taken from ChEMBL document CHEMBL3576772, “Fibroblast Growth Factor Receptor 3 (FGF-R3): A Promising Therapeutic Target for the Treatment of Bladder Cancer” (2015).

The nature of assay [1]: Inhibition of serum-induced proliferation of human TCC97-7 cells carrying FGFR3 Ser249Cys mutation at 10 uM after 3 days. The class given is functional. The note with it: TCC97-7, 72 h.
The subject of assay [2] is Fibroblast growth factor receptor 3 (Homo sapiens), P22607 [S249C]. Put plainly: Antagonist activity against FGFR3 Ser249Cys mutant in human TCC97-7 cells cultured in serum-supplemented medium assessed as reduction in ATP content at 10 um after 3 days by cell titer-Glo luminescent cell viability assay. The class given is cell-based. On the technique in general: In ATP-based viability assays light output follows the ATP content of the culture.

The nature of assay [3]: Inhibition of serum-induced proliferation of human TCC97-7 cells carrying FGFR3 Ser249Cys mutation at 1 uM after 3 days. The class given is functional. The note with it: TCC97-7, 72 h.
In assay [4] the test system is Fibroblast growth factor receptor 3 (Homo sapiens), P22607 [S249C]. Put plainly: Antagonist activity against FGFR3 Ser249Cys mutant in human TCC97-7 cells cultured in serum-supplemented medium assessed as reduction in ATP content at 1 um after 3 days by cell titer-Glo luminescent cell viability assay. The assay is classed as cell-based.
Fibroblast growth factor receptor 3 (Homo sapiens), P22607 [S249C], sequence (P22607 whole entry S249C): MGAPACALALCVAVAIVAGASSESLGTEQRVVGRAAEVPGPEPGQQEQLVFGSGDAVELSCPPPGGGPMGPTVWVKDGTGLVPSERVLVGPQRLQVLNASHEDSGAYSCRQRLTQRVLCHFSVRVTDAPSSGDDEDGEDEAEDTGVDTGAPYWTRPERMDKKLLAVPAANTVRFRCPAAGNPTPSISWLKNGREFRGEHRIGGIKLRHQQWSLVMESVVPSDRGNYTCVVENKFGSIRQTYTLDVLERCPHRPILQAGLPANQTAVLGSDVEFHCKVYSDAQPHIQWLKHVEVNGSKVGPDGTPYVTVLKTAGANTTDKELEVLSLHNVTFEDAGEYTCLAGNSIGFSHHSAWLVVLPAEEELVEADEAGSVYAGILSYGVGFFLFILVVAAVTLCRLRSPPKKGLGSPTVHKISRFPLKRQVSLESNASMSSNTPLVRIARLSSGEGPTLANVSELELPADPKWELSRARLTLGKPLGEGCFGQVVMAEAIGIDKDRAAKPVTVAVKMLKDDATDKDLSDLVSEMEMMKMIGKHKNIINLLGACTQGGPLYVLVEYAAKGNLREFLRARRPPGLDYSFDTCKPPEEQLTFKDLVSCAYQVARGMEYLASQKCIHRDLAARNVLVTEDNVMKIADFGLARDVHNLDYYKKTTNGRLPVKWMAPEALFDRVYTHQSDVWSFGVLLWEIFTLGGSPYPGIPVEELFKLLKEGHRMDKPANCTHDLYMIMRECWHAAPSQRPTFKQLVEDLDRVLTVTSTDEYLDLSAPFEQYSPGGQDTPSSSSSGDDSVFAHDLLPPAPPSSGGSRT

Usually inhibition stands for the change of the read-out against control, counted positive when it falls. Take `O=C(c1cccc(-c2cc(C(F)F)c3c(-c4ccccc4)n[nH]c3n2)c1)N1CCCC1`: the inhibition at 10 µM in assay [1] was determined as 83.9%. The inhibition in assay [2] amounted to 90.5%; in assay [4], 26.9%. Moreover, the inhibition at 1 µM in assay [3] was 16.2%.
The matching figures for `Cn1nc(-c2ccccc2)c2c(C(F)(F)F)cc(-c3cccc(C(N)=O)c3)nc21`: 91.6%, 41.1%, 10.9% and 8%.
In the case of `O=c1[nH]c2ccc(-c3cc(C(F)(F)F)c4c(-c5ccccc5)n[nH]c4n3)cc2[nH]1`, in assay [1], the inhibition at 10 µM is 29%. In addition, the inhibition in assay [2] was 19%. In addition, in assay [3], the inhibition at 1 µM is -3%.
Regarding `Cn1nc(-c2ccccc2)c2c(C(F)(F)F)cc(-c3ccc(C(=O)O)cc3)nc21`, the inhibition at 10 µM in assay [1] worked out at 33%. Also, the inhibition was determined as 40% in assay [2] and 17% in assay [4]. The inhibition at 1 µM in assay [3] stood at 8%.
